Source: paper PMC9804910 (Chembiochem, 2022)

Tests used:
[1] = test system: CT‐26 (mouse colon adenocarcinoma); experiment: Fluorometric cell viability assay (Resazurin), 2D monolayer; assay type: cell-based; conditions: for IC50: CT‐26, 48 h
Protocol: (§1) The first step toward the biological investigation of complexes 3–8 was the evaluation of cell viability in monolayer cultures of CT‐26 (mouse colon adenocarcinoma), PC‐3 (human prostate adenocarcinoma), and RPE‐1 (human normal retina pigmented epithelial) cell lines using a fluorometric cell viability assay with the Resazurin reagent. Cisplatin and 1 were tested in the same cell lines as positive and additional controls.
(§2) Cell cultures: The CT‐26 cell line was cultured in DMEM media (Gibco) supplemented with 10 % foetal calf serum (Gibco) and 1 % penicillin‐streptomycin antibiotic (Gibco). The PC‐3 cell line was cultured in F12‐K media (Gibco) supplemented with 10 % foetal calf serum (Gibco) and 1 % Penicillin‐Streptomycin antibiotic (Gibco). The RPE‐1 cell line was cultured in DMEM/F‐12 media (Gibco) supplemented with 10 % foetal calf serum and 1 % Penicillin‐Streptomycin antibiotic (Gibco). Cell lines were maintained in a humidified atmosphere at 37 °C with 5 % CO2.
(§3) Cytotoxicity assay using a 2D cellular model: The cytotoxicity of the tested Ru complexes was assessed by a fluorometric cell viability assay using Resazurin (Acros Organics). Briefly, cells were seeded in triplicate in 96‐well plates at a 4×10^3 cells/ well density in 100 μL. After 24 h, cells were treated with increasing concentrations of the ruthenium complexes and controls. Dilutions for complexes 3–8 were prepared as follows: 10 mM stock solution in DMSO was diluted to 100–0.01 μM with medium. After 48 h of incubation, the medium was removed, and 100 μL of complete medium containing resazurin (0.2 mg/mL final concentration) was added. After 4 h of incubation at 37 °C, the fluorescence signal of the resorufin product was read (ex 540 nm, em 590 nm) in an Infinite 200 PRO Microplate Reader from TECAN. IC50 values were then calculated using GraphPad Prism software.

[2] = test system: PC‐3 (human prostate adenocarcinoma); experiment: as above; assay type: cell-based; conditions: PC‐3, 48 h
Protocol: as §1, §2, §3

[3] = test system: RPE‐1 (human normal retina pigmented epithelial); experiment: as above; assay type: cell-based; conditions: RPE‐1, 48 h
Protocol: as §1, §2, §3

[4] = test system: CT‐26 cells; experiment: Mito stress test (Seahorse, oxygen consumption rate); assay type: cell-based, mouse; conditions: CT‐26, 24 h treatment; 1 (1 μM), 3 (5 μM), 4 (0.5 μM), 5 (10 μM), 6 (25 μM), 7 (10 μM), 8 (25 μM)
Protocol: To further study the mechanism of action of complexes 3–8, their influence on the cellular metabolism of CT‐26 cells was investigated. Figure 6 represents the Mito stress test profile after 24 h of treatment; the oxygen consumption rate (OCR) changes with specific electron‐transport chain inhibitors. Oligomycin (inhibitor of ATP synthase (complex V)), FCCP (uncoupling agent), antimycin‐A (complex III inhibitors), and rotenone (complex I inhibitor) were employed in this study. In general, both cationic compounds 4 and 7 affected the mitochondrial processes. It is evident from the low basal respiration and the inhibition of ATP production compared to untreated cells (orange dots) that the mitochondrial membrane of the cells treated with such complexes lost the capacity to restore the proton balance when treated with an uncoupling agent (FCCP). The maximal respiration (the OCR value when the mitochondrial membrane is uncoupled) and spare respiratory capacity (difference in the OCR values between maximal respiration and basal respiration) of the cells were reduced compared to those of untreated cells (Figure 6). […] The results with complex 4 are consistent with its measured large mitochondrial uptake (see above).
Metabolic studies: mito stress test: CT‐26 cells were seeded in Seahorse XFe 96‐ well plates at a density of 20 000 cells/well in 80 μL of the medium. After 24 h, the medium was replaced with fresh medium, and either complex 1 (1 μM), 3 (5 μM), 4 (0.5 μM), 5 (10 μM), 6 (25 μM), 7 (10 μM), or 8 (25 μM) was added. After 24 h of incubation, the regular medium was removed, and cells were washed three times using Seahorse base media and incubated in a non‐CO2 incubator at 37 °C for 1 h. A Mito stress assay was run using 1 μM oligomycin, 1 μM FCCP, and a mixture of 1 μM antimycin‐A/1 μM rotenone in ports A−C, respectively, using a Seahorse XFe96 extracellular flux analyser.

[5] = test system: HeLa cells; set-up: method as in PMID 32065454; conditions: cited from earlier work
[6] = test system: CT‐26 cells; experiment: ICP‐MS cellular uptake; assay type: cell-based, mouse
Protocol: The cellular uptake of the complexes 3–8 was then investigated in CT‐26 cells by determining the amount of Ru inside the cells using inductively coupled plasma mass spectrometry (ICP‐MS) after 2 h of incubation at 5 μM. […] This is most probably due to the higher lipophilicity of the DIP ligand compared to phen. […] In contrast, the neutral complexes with the DIP ligand (3 and 5) present a lower uptake (ca. 50 %) compared the phen analogues 6 and 8. This observation is rather counter‐intuitive since compounds 3 and 5 have a higher cytotoxicity than 6 and 8. The lower uptake of the DIP complexes 3 and 5 might be due to the lower solubility of these complexes in the cell culture medium. However, taken together, the uptake and cytotoxicity data imply that 3 and 5 have a higher specific cytotoxic activity compared to the phen analogues 6 and 8, reasonably attributable to their higher lipophilicity.
ICP‐MS cellular uptake studies: CT‐26 cells were seeded at a density of 1×10^6. The next day, cells were treated with 5 μM of the corresponding complex diluted in the cell culture medium from a 10 mM stock solution in DMSO. After 2 h, cells were collected, counted, and stored at −80 °C. ICP‐MS samples were prepared as follows: samples were digested using 70 % nitric acid (1 mL, 60 °C, overnight) and then further diluted 1 : 100 (1 % HCl solution in MQ water) analysed using ICP‐MS. All ICP‐MS measurements were performed on an Agilent 7900 Quadrupole ICP‐MS located at the Institut de Physique du Globe de Paris (France). The monitored isotopes are 99 and 101 Ru. Daily, before the analytical sequence, an indium internal‐standard was injected after inline mixing with the samples to correct for signal drift and matrix effects. A set of calibration standards was analysed to confirm and model (through simple linear regression) the linear relationship between signal and concentration. The model was then used to convert measured sample counts to concentrations. Reported uncertainties were calculated using error propagation equations and considering the combination of standard deviation on replicated consecutive signal acquisitions (n=3), internal‐standard ratio and blank subtraction. The non‐linear term (internal‐standard ratio) was linearized using a first‐order Taylor series expansion to simplify error propagation. The amount of metal detected in the cell samples was transformed from ppb to μg of metal. Data were subsequently normalized to the number of cells and expressed as μmol of metal/number of cells.

[7] = test system: CT‐26 cells; experiment: Cellular fractionation (mitochondria and nucleus isolation, Ru content); assay type: cell-based, mouse; conditions: CT‐26, 5 μM, 4 h
Protocol: Additionally, we choose the best candidate from the cytotoxicity experiments, namely [Ru(DIP)2(η^2‐acac)]Cl (4), to explore its cellular localisation. For this, we performed cellular fractionation experiments to ascertain in which organelle it localizes.
Sample preparation for cellular fractionation: CT‐26 cells were seeded in three 15 cm^2 cell culture dishes and cells were 90 % confluent on the day of treatment. On the day of treatment, cells were incubated with the target complex at a concentration of 5 μM for 4 h, then the medium was removed and the cells were washed, collected, and counted. After re‐suspension in cold PBS, the organelles were isolated by using different protocols (one cell culture dish per isolation was used).
Mitochondria and nucleus isolation : To isolate mitochondria, a Mitochondria Isolation Kit (Cat. Nr: MITOISO2, SigmaAldrich) and Nucleus Isolation Kit (NUC‐101) were used according to the manufacturer procedure for the isolation of mitochondria via homogenization method.

[8] = Stability in human plasma (UV-Vis and HPLC); assay type: in vitro ADME; conditions: 37 °C
Protocol: The biological activity of anticancer drugs candidates is strongly influenced by their stability in DMSO, medium cell culture, and human plasma. For this reason, we performed stability studies of complexes 3–8 at 37 °C in DMSO and DMEM medium (Gibco) (Supporting Information Figures S1 ‐ S2). […] Finally, the stability of the compounds was investigated by incubating them in human plasma at 37 °C for 48 h, followed by UV‐Vis and HPLC analysis. […] After 48 h, only 15 % of the complex was still intact, as observed by HPLC (Supporting Information Figure S5).
Stock solutions of each complex (2 mM) and caffeine (2 mM) were prepared in dimethyl sulfoxide. 50 μL of both stock solutions (complex and caffeine) were added to 400 μL of human plasma, achieving 500 μL. The resulting solutions were incubated upon continuous gentle shaking (ca. 300 rpm) for 48 h at 37 °C. After this time, the incubation was ended by adding 1 mL of methanol. The mixture was centrifuged for 45 min at 3000 rpm and 4 °C. The solution was filtered through a 0.2 μm membrane filter and submitted to HPLC analysis, that were carried out on a Jupiter Proteo column (250×4.6 mm, 4 μm, flow rate: 1 mL/min). The solvents (HPLC grade) were Millipore water (solvent A) and acetonitrile (solvent B). […] The flow rate was 1 mL min^−1, and the chromatogram was detected at 215 nm.

[9] = test system: different tumour cells; set-up: method as in PMID 17199281; conditions: cited from earlier work
[10] = test system: several cancer cell lines; set-up: method as in PMID 32319768; conditions: cited from earlier work
[11] = test system: cancer cells; set-up: method as in PMID 25313823; conditions: 2 h incubation; cited from earlier work

Row | Compound | IC50 [1] | IC50 [2] | IC50 [3] | further results
1 | Cc1occc(=O)c1[O-].F[P-](F)(F)(F)(F)F.[Ru+2].c1ccc(-c2ccnc3c2ccc2c(-c4ccccc4)ccnc23)cc1.c1ccc(-c2ccnc3c2ccc2c(-c4ccccc4)ccnc23)cc1 [Compound 1, [Ru(DIP)2(mlt)](PF6), reference compound] | 0.37 ± 0.12 µM | 1.84 ± 0.23 µM | 0.67 ± 0.14 µM | effect on mitochondrial respiration (basal respiration, OCR profile) vs untreated cells [4]: severe impairment of mitochondrial respiration; subcellular accumulation [5]: accumulate more in the nucleus than in mitochondria
2 | CC(=O)C=C(C)[O-].[Cl-].[Ru+2].c1cnc2c(c1)ccc1cccnc12.c1cnc2c(c1)ccc1cccnc12 [Compound 7, [Ru(phen)2(η^2‐acac)]Cl] | 10.3 ± 0.74 µM | > 100 µM | > 100 µM | effect on mitochondrial respiration (basal respiration, OCR profile) vs untreated cells [4]: severe impairment of mitochondrial respiration
3 | [Ru+2].c1ccc(-c2ccnc3c2ccc2c(-c4ccccc4)ccnc23)cc1.c1ccc(-c2ccnc3c2ccc2c(-c4ccccc4)ccnc23)cc1.c1ccc2nc3c4cccnc4c4ncccc4c3nc2c1 [[Ru(DIP)2(dppz)]^2+] |  |  |  | inhibition against tumour cells [9]: low inhibition
4 | N.N.[Cl][Pt][Cl] [cisplatin, reference compound] | 1.94 ± 0.72 µM | 10.3 ± 1.14 µM | 20.1 ± 3.91 µM | 
5 | [Ru(DIP)2(sq)](PF6) [Compound 2] |  |  |  | cytotoxicity [10]: nanomolar concentration range
6 | [Ru(bpy)(phpy)(dppz)]^+ |  |  |  | complex accumulated in nuclei [11]: ~90%

The next lines start with results.

Row | IC50 [1] | IC50 [2] | Compound | IC50 [3] | further results
7 | 0.41 ± 0.1 µM | 0.62 ± 0.19 µM | CC(=O)C=C(C)[O-].[Cl-].[Ru+2].c1ccc(-c2ccnc3c2ccc2c(-c4ccccc4)ccnc23)cc1.c1ccc(-c2ccnc3c2ccc2c(-c4ccccc4)ccnc23)cc1 [Compound 4, [Ru(DIP)2(η^2‐acac)]Cl] | 0.5 ± 0.12 µM | selectivity towards CT‐26 and PC‐3 cancer cell lines compared to healthy cell line RPE‐1 ([1]; from IC50 values, 48 h): no selectivity; cellular uptake compared to neutral DIP complexes 3 and 5 ([6]; CT‐26): at least three times larger; cellular uptake compared to phen counterpart 7 ([6]; CT‐26, 5 μM, 2 h): almost three times larger; cellular uptake compared to reference complex 1 ([6]; CT‐26, 5 μM, 2 h): ca. three times larger; cellular uptake (amount of Ru inside the cells) ([6]; CT‐26, 5 μM, 2 h incubation): most significant uptake; fraction detected in the nucleus (of the total amount of Ru) [7]: ca. 10%; localization in mitochondria (of the total amount of Ru) [7]: ca. 50%; effect on mitochondrial respiration (basal respiration, OCR profile) vs untreated cells [4]: severe impairment of mitochondrial respiration
8 | 24.1 ± 2.5 µM | 21.1 ± 2.29 µM | O=C([O-])C(=O)[O-].[Ru+2].c1ccc(-c2ccnc3c2ccc2c(-c4ccccc4)ccnc23)cc1.c1ccc(-c2ccnc3c2ccc2c(-c4ccccc4)ccnc23)cc1 [Compound 5, [Ru(DIP)2(η^2‐ox)]] | 14.5 ± 3 µM | lower uptake compared to the phen analogues 6 and 8 ([6]; CT‐26, 5 μM, 2 h): ca. 50%
9 | > 100 µM | > 100 µM | O=C([O-])CC(=O)[O-].[Ru+2].c1cnc2c(c1)ccc1cccnc12.c1cnc2c(c1)ccc1cccnc12 [Compound 6, [Ru(phen)2(η^2‐mal)]] | > 100 µM | stability in human plasma (UV‐vis spectra and HPLC chromatograms before and after incubation) ([8]; 48 h): chemical transformation; complex still intact (HPLC) ([8]; after 48 h): 15%
10 | > 100 µM | > 100 µM | O=C([O-])C(=O)[O-].[Ru+2].c1cnc2c(c1)ccc1cccnc12.c1cnc2c(c1)ccc1cccnc12 [Compound 8, [Ru(phen)2(η^2‐ox)]] | > 100 µM | 
11 | 5.63 ± 0.34 µM | 4.92 ± 0.33 µM | [Ru(DIP)2(η^2‐mal)] [Compound 3] | 5 ± 0.7 µM | lower uptake compared to the phen analogues 6 and 8 ([6]; CT‐26, 5 μM, 2 h): ca. 50%
